According to patent US9540428B2, “Extracellular matrix heparin-binding domains” (EPFL-TTO, priority 2012, dated 2017):

What was measured:
SMC = assay: Smooth muscle cell proliferation on modified TG-PEG gels with PDGF-BB; assay type: cell-based
Protocol: Method: Three different gels were fabricated, unmodified PEG, and PEG gels modified with TNC III1-5 or FN III9*-10,TNC III1-5 (5 μM). Unbound fragment was washed from the gels. Sequentially, gels were incubated for 1 hour at 37° C. with 100 μL DMEM without PDGF-BB or with PDGF-BB (1 ng per gel). For one set of gels, the media containing PDGF-BB was removed and gels were washed for 1 hour at RT. Cells were added to each gel and a proliferation assay with Alamar Blue was performed at 72 hours.

[1] = molecular target: T1, binding of TNC III1-5 to the cytokines (Homo sapiens, UniProt P24821); assay: Competition ELISA: TNC III1-5 binding to cytokines with gradient of full length tenascin or heparin; conditions: high concentrations of competitor; 10 nM TNC III1-5
T1 construct: factor Xa cleavage site (N); made in house; host or cells: HEK-293E
T1 sequence (P24821 622-1074): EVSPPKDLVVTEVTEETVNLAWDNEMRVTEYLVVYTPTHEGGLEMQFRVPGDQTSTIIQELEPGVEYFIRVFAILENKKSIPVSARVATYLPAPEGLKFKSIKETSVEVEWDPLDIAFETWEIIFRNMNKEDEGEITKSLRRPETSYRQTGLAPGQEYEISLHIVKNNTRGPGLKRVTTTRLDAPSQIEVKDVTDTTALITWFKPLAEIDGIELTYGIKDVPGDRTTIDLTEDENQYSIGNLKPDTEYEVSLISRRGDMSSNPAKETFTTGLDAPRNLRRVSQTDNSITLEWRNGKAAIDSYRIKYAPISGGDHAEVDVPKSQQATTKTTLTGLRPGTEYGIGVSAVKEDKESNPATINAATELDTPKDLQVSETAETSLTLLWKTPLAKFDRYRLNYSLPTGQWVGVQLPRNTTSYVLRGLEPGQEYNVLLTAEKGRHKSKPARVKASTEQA
Protocol: ELISA plates were coated with cytokines or BSA and further incubated with TNC III1-5 in the presence of a gradient of full length tenascin or heparin to verify the specificity of the binding. […] TNC bound to the cytokines, making them unavailable for TNC III1-5, while heparin bound to TNC III1-5, blocking it to bind to the cytokines. Method: 50 nM of cytokine was coated for (1 hr, 37° C.). After blocking with 2% BSA (1 hr, RT). 10 nM TNC III1-5 was applied in PBST (0.05% tween, 0.1% bovine serum albumin (BSA)) (1 hr, RT) in the presence of a gradient of full length tenascin (0, 0.2, 0.6, 1.9, 5.6, 17, 50 nM) or heparin (0.01, 0.64, 3.2, 16, 80, 400, 2000, 10000). TNC III1-5 was detected with HRP-anti-HIS in PBST (1 hr, RT) and developed with TMB. Background values were obtained by applying each tenascin (0, 0.2, 0.6, 1.9, 5.6, 17, 50 nM) or heparin (0.01, 0.64, 3.2, 16, 80, 400, 2000, 10000) concentration to the cytokine without TNC III1-5, and were subtracted as normalization.
To verify specific binding of tenascin to the cytokines, tenascin (0, 0.1, 0.2, 0.6, 1.9, 5.6, 17, 50 nM) was incubated with PDGF-BB (50 nM) and BSA and detected with mouse anti-tenascin, HRP-anti-mouse, and TMB.

HUVEC cells = assay: HUVEC proliferation with cytokines with or without fibrinogen or Fg β15-66; assay type: cell-based, human; conditions: 72 hours; ≧100-fold molar excess; VEGF-A165, PlGF-2, FGF-2
Protocol: To verify that cytokines bound to Fg β15-66 are still bioactive, the proliferation of HUVEC cells was tested for different cytokines with and without the presence of Fg β15-66. Method: HUVEC cells were stimulated with various cytokines: VEGF-A165, PlGF-2, and FGF-2 with or without fibrinogen or Fg β15-66 in excess (≧100-fold molar excess).

[2] = molecular target: T2, binding of TNC III1-5 to cytokines (Homo sapiens, UniProt P24821); assay: ELISA binding of TNC III1-5 to cytokines in presence of 4 μM heparin; conditions: heparin 4 μM; 100 nM TNC III1-5
T2 construct: factor Xa cleavage site (N); made in house; host or cells: HEK-293E
Protocol: ELISA plates were coated with cytokines or BSA and further incubated with TNC III1-5 to analyze binding of TNC III1-5 to a wide variety of cytokines. […] Results are depicted in FIG. 3. Method: 50 nM of cytokine was coated for (1 hr, 37° C.). After blocking with 2% BSA (1 hr, RT). 100 nM TNC III1-5 was applied in PBST (0.05% tween, 0.1% bovine serum albumin (BSA)) (1 hr, RT). TNC III1-5 was detected with horseradish peroxidase (HRP)-anti-HIS in PBST (1 hr, RT) and developed with 3,3′,5,5′-tetramethylbenzidine (TMB), a soluble colorimetric HRP […]. Addition of sulfuric acid stop solution changes the color to yellow, enabling accurate measurement of the intensity at 450 nm using a spectrophotometer or plate reader. […] Heparin (4 μM) was added to TNC III1-5 to test the effect of blocking the heparin binding site of TNC III1-5, which has been defined as domain TNC III5 (Weber, Zimmermann, et al., 1995).

skin wounds = conditions: applied topically for five consecutive days; 20 μg/wound VEGF-A165 or 10 μg/wound PDGF-BB; cited from earlier work
PDGF-BB = PDGF-BB (Homo sapiens, UniProt P01127); assay: ELISA of individual TNC domains binding PDGF-BB
Protocol: An ELISA was performed to test the affinity of different domains present in TNC1-5 to PDGF-BB as an example cytokine that has shown to bind TNC III1-5. […] Method: ELISA plates were coated with individual TNC domains fused to GST, as well as GST and BSA. Wells were blocked with BSA and then incubated with 2 nM PDGF-BB. Binding of PDGF-BB was detected using an anti-PDGF-BB antibody and then a secondary horseradish peroxidase conjugated antibody.

For “FN III9*-10-TNC III1-5: fusion protein of fibronectin integrin binding domain FN III9*-10 and TNC III1-5 with TG substrate, SEQ ID NO:5”, the “SMC proliferation on top of a PEG gel, fusion vs TNC III1-5” value (SMC; addition of FN III9*-10 to TNC III1-5) was “significantly enhanced SMC proliferation” and the “SMC proliferation on TG-PEG gels (2%)” value (SMC; in the presence of PDGF-BB, 5 μM fragment, 72 hours) was “enhanced SMC proliferation”.

In the case of “TNC: full length tenascin C, extracellular matrix glycoprotein, used as competitor”, the “competition of binding of TNC III1-5 to the cytokines” value [1] is reported as “competed away binding”.

With fibrinogen [reference compound] the “synergistic effect on HUVEC proliferation, cytokines plus protein vs cytokines alone” value (HUVEC cells) was “no synergistic effect”.

In the case of heparin, the “effect on binding of TNC III1-5 to cytokines” value [2] is reported as “impaired binding” and the “competition of binding of TNC III1-5 to the cytokines” value [1] is reported as “competed away binding”.

B1: VEGF-A165: vascular endothelial growth factor, cytokine applied topically (protein)
chain: APMAEGGGQNHHEVVKFMDVYQRSYCHPIETLVDIFQEYPDEIEYIFKPSCVPLMRCGGCCNDEGLECVPTEESNITMQIMRIKPHQGQHIGEMSFLQHNKCECRPKKDRARQENPCGPCSERRKHLFVQDPQTCKCSCKNTDSRCKARQLELNERTCRCDKPRR
For B1, the “efficacy in the db/db mouse” value (skin wounds) is given as “efficient”.

B2: PDGF-BB: platelet derived growth factor BB (REGRANEx®) applied topically (protein)
chain: SLGSLTIAEPAMIAECKTRTEVFEISRRLIDRTNANFLVWPPCVEVQRCSGCCNNRNVQCRPTQVQLRPVQVRKIEIVRKKPIFKKATVTLEDHLACKCETVAAARPVT
In the case of B2, the “efficacy in the db/db mouse” value (skin wounds) is given as “efficient”.

B3: TNC III5: fifth fibronectin type III domain of tenascin C, heparin-binding; tested as GST fusion (protein)
chain: LQVSETAETSLTLLWKTPLAKFDRYRLNYSLPTGQWVGVQLPRNTTSYVLRGLEPGQEYNVLLTAEKGRHKSKPARVKASTEQA
modifications: left off: a dimerising Fc or GST
notes: tested as GST fusion
In the case of B3, the “domain responsible for binding of PDGF-BB” value (PDGF-BB; GST-fused TNC domains coated, 2 nM PDGF-BB) is reported as “responsible for cytokine binding”.

B4: TNC III4-5: fibronectin type III domains 4-5 of tenascin C (protein)
chain: APRNLRRVSQTDNSITLEWRNGKAAIDSYRIKYAPISGGDHAEVDVPKSQQATTKTTLTGLRPGTEYGIGVSAVKEDKESNPATINAATELDTPKDLQVSETAETSLTLLWKTPLAKFDRYRLNYSLPTGQWVGVQLPRNTTSYVLRGLEPGQEYNVLLTAEKGRHKSKPARVKASTEQA
With B4 the cytokine-binding (PDGF-BB; test not specified) was “demonstrated cytokine-binding”.
